Experiments:
[1] = Population pharmacokinetic analysis of liraglutide (one-compartment model, NONMEM FOCE-I; plasma ELISA); format: in vivo, human; settings: for Absorption rate constant KA / Apparent volume of distribution V/F: parameter fixed
Procedure: As the focus of the analysis was a comparison of different age populations, age was prespecified to be included initially as a categorical variable.
In trial 4180, Tanner staging (stages 2‐5) of adolescents was assessed by site staff trained in pubertal assessments. For females, assessments of breast and pubic hair development were made. For males, assessments of testicular volume (by orchidometer), penis development and pubic hair development were made. Prepubertal patients were not permitted in the trial.
The structural model was parameterized in terms of the following parameters: • ka (absorption rate constant) • CL/F (apparent clearance) • V/F (apparent volume of distribution)
The first‐order conditional estimation with interaction (FOCE‐I) method was used for the population pharmacokinetic analysis, implemented in the non‐linear mixed effects modelling (NONMEM) software.
An analysis of the influence of covariates on exposure was carried out including all tested covariates in one step, using a confirmatory approach,[32] and disregarding any interactions between age group and sex. Model development involved estimation of a base model without covariates and a full model including all predefined covariates. If any covariates without statistically significant effect could be excluded, the reduced model would be considered the final population pharmacokinetic model. The covariates were prespecified and based on earlier findings in phase 3 trials with adults as well as prior knowledge from smaller trials in children and adolescents.
Specific steady‐state exposures for individual participants were based on the full model, including all covariates, and derived from the subject‐specific post‐hoc CL/F estimates, the maintenance dose and the dose interval (24 hours): (6) Cavg=Dose/CL/F*24hours
The CIs for full model parameters were estimated using bootstrapping. For each investigated covariate, differences were considered relevant if the 90% CI of the estimated mean of the relative exposure fell outside the standard bioequivalence limits (0.80‐1.25).
Between‐subject variability was included for CL/F and V/F, assuming log‐normal distributions […]. Furthermore, CL/F and V/F were estimated using a full variance‐covariance matrix. No between‐subject variability was included for ka. Within‐subject variability (residual) was described by a proportional error model. Standard graphical quality analyses, including goodness‐of‐fit plots (Figure S1), were made during qualification of the pharmacokinetic model.

[2] = tested on: adolescents in trial 4180; design: species or system human; settings: in vivo
Procedure: The analyses were conducted using response data at week 20 (phase 2 trial 1807), week 50 (phase 3a trial 1922) or week 56 (phase 3a trials 4180 and 1839) to align with the original analysis in adults. The appropriateness of using different trial lengths for the historical adult trials was evaluated by graphically exploring the weight loss longitudinally. This was deemed appropriate as the maximal effect on weight reduction was reached after 20 weeks of treatment and remained stable thereafter for the trials of longer duration. […] The two age groups differed in the placebo group response, with lower mean responses in adolescents; this difference was consistent across the exposure range as well. […] However, the effect of age group on the maximal effect in the model (Emax) was not significant in these analyses. […] Approximately 64% of the adolescents in the exposure‐response analysis grew more than 0.5 cm during the trial. Of these, some received liraglutide and some received placebo.

[3] = tested on: pubertal adolescents with obesity; settings: 56-week trial, liraglutide in addition to lifestyle therapy; 95% CI -0.37, -0.08; P = 0.002; cited from earlier work
[4] = base pharmacokinetic model without covariates

CCCCCCCCCCCCCCCC(=O)N[C@@H](CCC(=O)NCCCC[C@H](NC(=O)[C@H](C)NC(=O)[C@H](C)NC(=O)[C@H](CCC(N)=O)NC(=O)CNC(=O)[C@H](CCC(=O)O)NC(=O)[C@H](CC(C)C)NC(=O)[C@H](Cc1ccc(O)cc1)NC(=O)[C@H](CO)NC(=O)[C@H](CO)NC(=O)[C@@H](NC(=O)[C@H](CC(=O)O)NC(=O)[C@H](CO)NC(=O)[C@@H](NC(=O)[C@H](Cc1ccccc1)NC(=O)[C@@H](NC(=O)CNC(=O)[C@H](CCC(=O)O)NC(=O)[C@H](C)NC(=O)[C@@H](N)Cc1cnc[nH]1)[C@@H](C)O)[C@@H](C)O)C(C)C)C(=O)N[C@@H](CCC(=O)O)C(=O)N[C@@H](Cc1ccccc1)C(=O)N[C@H](C(=O)N[C@@H](C)C(=O)N[C@@H](Cc1c[nH]c2ccccc12)C(=O)N[C@@H](CC(C)C)C(=O)N[C@H](C(=O)N[C@@H](CCCNC(=N)N)C(=O)NCC(=O)N[C@@H](CCCNC(=N)N)C(=O)NCC(=O)O)C(C)C)[C@@H](C)CC)C(=O)O [liraglutide]
Absorption rate constant KA [1, 4]: 0.0804 h⁻¹
Apparent volume of distribution V/F [1, 4]: 13.1 L
Absorption rate constant KA ([1]; final (full covariate) pharmacokinetic model, trials 4180, 3967, 3630, 4181, children, adolescents and adults with obesity, N = 176): 0.0813 h⁻¹
Body weight exponent on V/F (V-BW) ([1]; final pharmacokinetic model): 0.587
Apparent volume of distribution V/F ([1]; final pharmacokinetic model, reference subject adult female, 100 kg): 13.8 L
Average growth (height) during the trial [2]: 1.4 cm
BMI standard-deviation score (SDS), estimated treatment difference compared with placebo [3]: −0.22
